Experimental data reported in patent US7205123B2, “Recombinant materials for carotenoid production” (DSM IP Assets B.V., priority 1995, dated 2007).

What was measured:
[1] = tested on: Phaffia (CBS6938); assay: Survival of untransformed Phaffia on YepD agar with increasing G418; assay type: cell-based, Phaffia rhodozyma; settings: Dil. 0 (OD600 = 5)
[2] = tested on: Phaffia transformant G418-1; assay: Survival of Phaffia transformant G418-1 on YepD agar with increasing G418; assay type: cell-based, Phaffia rhodozyma
Procedure: To determine the expression of the G418 resistance gene in pGB-Ph9, transformant G418-1 (EP 0 590 707 A1) was exposed to increasing concentrations of G418.
Two dilutions of a G418-1 culture were plated onto YepD agar containing 0–1000 μg/ml G418 (Table 1).

## CN[C@@H]1[C@@H](O)[C@@H](O[C@@H]2[C@@H](O)[C@H](O[C@H]3O[C@H]([C@@H](C)O)[C@@H](O)[C@H](O)[C@H]3N)[C@@H](N)C[C@H]2N)OC[C@]1(C)O [G418]
[1]; G418 200 μg/ml
  Survival on YepD agar medium: 0
[1]; G418 300 μg/ml
  Survival on YepD agar medium: 0
[1]; G418 400 μg/ml
  Survival on YepD agar medium: 0
[1]; G418 500 μg/ml
  Survival on YepD agar medium: 0
[1]; G418 600 μg/ml
  Survival on YepD agar medium: 0
[1]; G418 700 μg/ml
  Survival on YepD agar medium: 0
[1]; G418 800 μg/ml
  Survival on YepD agar medium: 0
[1]; G418 900 μg/ml
  Survival on YepD agar medium: 0
[1]; G418 1000 μg/ml
  Survival on YepD agar medium: 0
[2]; G418 200 μg/ml, Dil. 10^-4 (OD600 = 7)
  Survival on YepD agar medium: >300
[2]; G418 200 μg/ml, Dil. 10^-5 (OD600 = 7)
  Survival on YepD agar medium: 70
[2]; G418 300 μg/ml, Dil. 10^-4 (OD600 = 7)
  Survival on YepD agar medium: >300
[2]; G418 300 μg/ml, Dil. 10^-5 (OD600 = 7)
  Survival on YepD agar medium: 61
[2]; G418 400 μg/ml, Dil. 10^-4 (OD600 = 7)
  Survival on YepD agar medium: 212
[2]; G418 400 μg/ml, Dil. 10^-5 (OD600 = 7)
  Survival on YepD agar medium: 13
[2]; G418 500 μg/ml, Dil. 10^-4 (OD600 = 7)
  Survival on YepD agar medium: 10
[2]; G418 500 μg/ml, Dil. 10^-5 (OD600 = 7)
  Survival on YepD agar medium: 2
[2]; G418 600 μg/ml
  plated cells survived: less than 1%
[2]; G418 600 μg/ml, Dil. 10^-4 (OD600 = 7)
  Survival on YepD agar medium: 0
[2]; G418 600 μg/ml, Dil. 10^-5 (OD600 = 7)
  Survival on YepD agar medium: 0
[2]; G418 700 μg/ml, Dil. 10^-4 (OD600 = 7)
  Survival on YepD agar medium: 0
[2]; G418 700 μg/ml, Dil. 10^-5 (OD600 = 7)
  Survival on YepD agar medium: 0
[2]; G418 800 μg/ml, Dil. 10^-4 (OD600 = 7)
  Survival on YepD agar medium: 0
[2]; G418 800 μg/ml, Dil. 10^-5 (OD600 = 7)
  Survival on YepD agar medium: 0
[2]; G418 900 μg/ml, Dil. 10^-4 (OD600 = 7)
  Survival on YepD agar medium: 0
[2]; G418 900 μg/ml, Dil. 10^-5 (OD600 = 7)
  Survival on YepD agar medium: 0
[2]; G418 1000 μg/ml, Dil. 10^-4 (OD600 = 7)
  Survival on YepD agar medium: 0
[2]; G418 1000 μg/ml, Dil. 10^-5 (OD600 = 7)
  Survival on YepD agar medium: 0
